Values of other authors in patent US9827227B2, “Controlled release pharmaceutical formulations of nitazoxanide” (Romark Laboratories L.C., priority 2009, dated 2017).

Columns and labels:
hepatitis C virus (HCV) = settings: in vitro and in clinical trials, in words
DNA viruses = settings: in vitro, in words
[1] = after oral administration of nitazoxanide in humans

Row | SMILES | activity against hepatitis C virus (HCV) (hepatitis C virus (HCV)) | activity against certain DNA viruses (DNA viruses) | half-life in plasma [1]
1 | CC(=O)Oc1ccccc1C(=O)Nc1ncc([N+](=O)[O-])s1 [Nitazoxanide, 2-(acetolyloxy)-N-(5-nitro-2-thiazolyl) benzamide] | activity against hepatitis C virus | active | –
2 | O=C(Nc1ncc([N+](=O)[O-])s1)c1ccccc1O [tizoxanide] | activity against hepatitis C virus | active | approximately 1.5 hours
